# Test results as given in patent US9629891B2, “Products and methods for aortic abdominal aneurysm” (NATIONWIDE CHILDREN'S HOSPITAL, INC., priority 2011, dated 2017).
# “Also recorded” adds a separate entry of the source.
# Experiments:
# [1] = test system: RAW 264.7; assay: Inflammatory mediator mRNA expression (qRT-PCR) in unstimulated RAW cells; format: cell-based; conditions: 10 μM DAPT for 6 days, vs untreated cells
# Experimental: (§1) The aorta was isolated from experimental mice at day 28 of AngII infusion and immediately frozen in RNA-later (Ambion, Austin, Tex.). Abdominal aorta of equal length was cut from the abdominal region of ApoE^−/− and Notch1^+/−ApoE^−/− mice and RNA was extracted using RNAqueous kit (Ambion, Austin, Tex.). RAW cells (264.7) were obtained from ATCC (Manassas, Va.) and were cultured following the manufacturer's instructions. Naïve macrophages were collected from the peritoneal cavity of ApoE^−/− or Notch1^+/−ApoE^−/− mice by standard protocol [Hans et al., Cardiovasc. Pathol., 185:1894-902 (2011); Hans et al., Cardiovasc. Res., 78:429-439 (2008); Oumouna-Benachour et al., Circulation, 115:2442-2450 (2007)]. The isolated macrophages were cultured in RPMI containing 10% FCS for 3 days and were then treated with 100 nM LPS or diluent for 3 h in RPMI containing 1% FCS. Following treatment, the macrophages were washed with cold PBS and RNA was extracted using RNAeasy kit (Qiagen, Valencia, Calif.). cDNA was synthesized using SuperScript® VILO™ cDNA Synthesis Kit (Invitrogen, Carlsbad, Calif.) and subjected to qRT-PCR by SYBR Green RT-PCR kit (Applied Biosystems, Foster City Calif.) using Applied Biosystems 7500 Fast Real-Time PCR System (Foster City Calif.). qRT-PCR was performed in triplicate and fold change determined by standardization to 18S rRNA. Results were normalized to the controls. […]
# [2] = test system: RAW 264.7; assay: Inflammatory mediator mRNA expression (qRT-PCR) in LPS-stimulated RAW cells; format: cell-based; conditions: pre-treatment with 10 μM DAPT, RAW cells with 100 ng/ml LPS for 3 hours, vs non-DAPT treated cells
# Experimental: as §1
# [3] = test system: AngII-induced mouse model of AAA; assay: Prophylactic Notch inhibition in AngII-induced mouse model of AAA; format: in vivo; conditions: ApoE−/− mice
# Experimental: Mini osmotic pumps (Model 2004; Alzet, Cupertino, Calif.) containing AngII (1000 ng/min/kg) or saline were implanted subcutaneously in the neck region of anesthetized mice following standard protocol [Daugherty et al., J. Clin. Invest., 105:1605-1612 (2000)]. Three independent experiments were performed to determine the effect of Notch1 haploinsufficiency on the formation of AAA. In one of these three experiments the effects of pharmacological inhibition of Notch were tested on AAA formation. Mice (n=3) were injected with a Notch inhibitor, DAPT (10 mg/kg dissolved in 10% ethanol, 90% corn oil), three times a week subcutaneously starting one week before the implantation of osmotic pump and continuing for an additional 28 days until the mice were sacrificed, as explained for FIG. 6. [Loane et al., Nat. Med., 15:377-379 (2009); Lanz et al., J. Pharmacol. Exp. Ther., 305:864-871 (2003); Sjolund et al., J. Clin. Invest., 118:217-228 (2008)].
# Two dimensional (B-mode) in vivo ultrasound images were obtained at weekly intervals after the implantation of osmotic pumps using a VisualSonics Vevo2100 imaging system (Ontario, Canada) with a mechanical transducer (MS400). After 28 days, the animals were euthanized and the aortas were dissected and fixed in 10% formalin. Minimum and maximum diameters of each vessel were determined by digitalized measurement (Zeiss AxioImager upright microscope with brightfield).
# Histological examination of the abdominal aorta of the AngII and saline treated mutant mice was performed. The abdominal region of the aorta were embedded in paraffin and serial sections ([…]) were obtained. Sections were stained with hematoxylin and eosin (HE), elastin staining (Sigma, St. Louis, Mo.), and terminal deoxynucleotidyl transferasemediated dUTP nick-end labeling (TUNEL) staining (Roche, Indianapolis, Ind.). Statistical comparisons were performed using either Student's t-test or one-way ANOVA followed by the Bonferroni's Multiple Comparison Test. GraphPad PRISM V5.0 (San Diego, Calif.) was used for these comparisons and a P value<0.05 was considered significant. […]
# [4] = test system: AngII-induced mouse model of AAA; assay: Therapeutic Notch inhibition (start day 3 or day 8) in AngII-induced mouse model of AAA, Example 7; format: in vivo; conditions: ApoE−/− mice
# Description: In the study, mice were divided into four groups: • ApoE^−/− mice with AngII plus vehicle for 28 days (n=6); • ApoE^−/− mice with AngII plus DAPT (7 days prior to AngII infusion, n=6); • ApoE^−/− mice with AngII plus DAPT (3 days after AngII infusion, n=9); and • ApoE^−/− mice with AngII plus DAPT (8 days after AngII infusion, n=9).
# These time periods were carefully selected to determine the effect of Notch inhibition on the formation of AAA before the onset of disease (−7 days), at day 3 (onset of inflammation) and day 8 (elastin degradation and cellular remodeling).
# NOTCH inhibitor (DAPT; 10 mg/kg; […] in corn oil) given at day 3 and day 8 after the AngII infusion reduced the progression of active AAA in the mouse model.
# [5] = test system: AngII-induced mouse model of AAA; assay: Progression of active AAA in AngII-induced mouse model, Example 8; format: in vivo
# Experimental: Active aneurysm was introduced in ApoE^−/− mice (n=36) by administering AngII. DAPT (10 mg/kg; 3 times a week) was injected in these mice starting either 3 days (Group II; n=12) or 8 days (Group III; n=12) after AngII infusion. Group I (n=12) received vehicle (10% alcohol in corn oil) only. The time periods were chosen so that a small aortic dilation is established before DAPT is administered.
# The increased collagen content in the aorta of ApoE^−/− mice in response to AngII provides stability to the tissue against sudden rupture.
# [6] = AngII infusion 28 days, DAPT 10 mg/kg three times a week from one week before AngII, vs untreated ApoE−/− mice
smiles,measurement,setting,value
"C[C@H](NC(=O)Cc1cc(F)cc(F)c1)C(=O)N[C@H](C(=O)OC(C)(C)C)c1ccccc1 [DAPT, N—[N-(3,5-Difluorophenacetyl)-L-alanyl]-S-phenylglycine t-butyl ester]","expression of MCP-1, IL-6, TNF-α, CXCL-10, VEGF, iNOS, ICAM-1, and VCAM-1",[1],Decreased expression; also recorded: significantly decreased
same,"expression of MCP-1, IL-6, TNF-α, CXCL-10, VEGF, iNOS, and ICAM-1",[2],Decreased expression; also recorded: significantly reduced
same,aortic diameter,[3]; [6],statistically significant reduction
same,incidence of AAA,[3]; [6],statistically significant reduction
same,histologic analysis of the aorta,"[3]; AngII infusion, DAPT 10 mg/kg prophylactic, vs untreated mice",no evidence of abdominal aneurysm; also recorded: normal aortic wall architecture without infiltration of inflammatory cells
same,maximal abdominal aortic width at day 28,"[4]; AngII, DAPT treatment started at day 3 and day 8",significantly decreased
same,progression of active AAA,[4]; DAPT 10 mg/kg in corn oil given at day 3 and day 8 after AngII infusion,reduced
same,luminal expansion of the abdominal aorta,"[5]; ApoE−/− mice, AngII, DAPT 10 mg/kg 3 times a week from day 3 (Group II) or day 8 (Group III), vs vehicle, echocardiography, p<0.05",significantly reduced
same,expression of MMP2 and MMP9 in the aortas,"[5]; Group II and Group III vs Group I (vehicle), quantitative real-time PCR and immunohistochemistry",decreased
same,monocyte chemotactic protein-1,[5]; Group III (DAPT from day 8),not associated with increased monocyte chemotactic protein-1
same,newly synthesized tropoelastin and collagen staining,[5]; Group III (DAPT from day 8),increased expression
same,macrophage content (CD-68),"[5]; Group III (DAPT from day 8) vs Group I (vehicle), marginal increase vs Group II",significantly less than Group I
same,elastin fragmentation and aortic remodeling,"[5]; both groups (DAPT from day 3 or day 8), histology",prevented
